Measurements from PMC5150661 (Journal of Medicinal Chemistry, 2016).
Where two headings read alike, the source gives them in different places. Marks after values point to notes of the source that are not given here.

How the values were obtained:
[1] = format: in vitro ADME; settings: liver microsomes
[2] = molecular target: T1, wild-type androgen receptor (AR) in LAPC4 cell line (Homo sapiens, UniProt P10275); format: cell-based
T1 sequence (P10275 1-920): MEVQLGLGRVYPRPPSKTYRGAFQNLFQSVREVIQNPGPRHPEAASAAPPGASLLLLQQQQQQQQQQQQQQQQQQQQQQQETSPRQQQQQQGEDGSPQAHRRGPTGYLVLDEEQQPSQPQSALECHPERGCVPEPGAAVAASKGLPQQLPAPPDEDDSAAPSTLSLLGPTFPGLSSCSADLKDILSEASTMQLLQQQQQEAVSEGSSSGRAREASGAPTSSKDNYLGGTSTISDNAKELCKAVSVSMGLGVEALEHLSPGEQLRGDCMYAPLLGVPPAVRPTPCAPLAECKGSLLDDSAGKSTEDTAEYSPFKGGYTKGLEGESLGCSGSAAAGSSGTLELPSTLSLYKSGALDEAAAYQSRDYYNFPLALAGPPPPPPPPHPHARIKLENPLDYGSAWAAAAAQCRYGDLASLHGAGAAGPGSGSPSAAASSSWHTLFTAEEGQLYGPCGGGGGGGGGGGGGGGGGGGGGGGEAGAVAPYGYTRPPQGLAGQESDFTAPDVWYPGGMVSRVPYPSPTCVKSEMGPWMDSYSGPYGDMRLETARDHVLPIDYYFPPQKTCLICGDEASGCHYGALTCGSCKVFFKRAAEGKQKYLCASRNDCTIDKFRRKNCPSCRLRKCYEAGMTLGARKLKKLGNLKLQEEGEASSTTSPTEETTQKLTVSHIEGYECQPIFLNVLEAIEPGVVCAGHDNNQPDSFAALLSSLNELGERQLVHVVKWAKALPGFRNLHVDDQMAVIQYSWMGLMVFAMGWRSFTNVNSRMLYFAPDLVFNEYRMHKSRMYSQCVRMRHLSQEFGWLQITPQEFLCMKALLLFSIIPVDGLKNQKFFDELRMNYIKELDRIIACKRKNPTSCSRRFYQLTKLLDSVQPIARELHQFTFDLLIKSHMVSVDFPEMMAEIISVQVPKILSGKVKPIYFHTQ

[3] = Mouse exposure study after oral administration; format: in vivo, male Swiss outbred mice; settings: after oral administration of 100 mg/kg of 1
S. mansoni [4] = settings: cited from earlier work
S. mansoni [5] = settings: 1 × 100 mg/kg po; ref Keiser et al. 21; cited from earlier work
S. mansoni [6] = experiment: S. mansoni in vivo study, worm burden reduction in infected NMRI mice; set-up: species or system Schistosoma mansoni in NMRI mice
physchem = format: physicochemical; settings: pH 7.4
in vitro [7] = settings: human, microsomes
in vitro [8] = settings: mouse, microsomes
[9] = 0.01 M HCl (approximately pH 2.0), 1% DMSO, nephelometry
[10] = pH 6.5 phosphate buffer, 1% DMSO, nephelometry

metabolic stability (in words) [1]	Sol2.0 [9]	Sol6.5 [10]	Structure (SMILES)	further results
decreased the metabolic stabilities	3.1–6.3/3.1–6.3 μg/mL	3.1–6.3/3.1–6.3 μg/mL	O=C1NC2(CCCCC2)C(=O)N1c1ccc(F)c(C(F)(F)F)c1 [Compd 27, 3-[4-Fluoro-3-(trifluoromethyl)phenyl]-1,3-diazaspiro[4.5]decane-2,4-dione]	
	3.1–6.3/3.1–6.3 μg/mL	3.1–6.3/3.1–6.3 μg/mL	CC1(C)OC(=O)N(c2ccc(F)c(C(F)(F)F)c2)C1=O [Compd 30, 3-[4-Fluoro-3-(trifluoromethyl)phenyl]-5,5-dimethyloxazolidine-2,4-dione]	
	25–50/25–50 μg/mL	25–50/25–50 μg/mL	CC1(C)C(=O)N(c2ccc(F)c(C(F)(F)F)c2)C(=O)N1CC#N [Compd 5, 2-[3-[4-Fluoro-3-(trifluoromethyl)phenyl]-5,5-dimethyl-2,4-dioxoimidazolidin-1-yl]acetonitrile]	
intermediate	50–100/50–100 μg/mL	50–100/50–100 μg/mL	CN1C(=O)N(c2ccc(F)c(C(F)(F)F)c2)C(=O)C1(C)C [Compd 2, 3-[4-Fluoro-3-(trifluoromethyl)phenyl]-1,5,5-trimethylimidazolidine-2,4-dione]	metabolic reactions observed [1]: N-dealkylation metabolic reactions to form 1
high metabolic stabilities	25–50/25–50 μg/mL	25–50/25–50 μg/mL	CC1(CO)NC(=O)N(c2ccc(F)c(C(F)(F)F)c2)C1=O (stereo not drawn) [Compd 25, 3-[4-Fluoro-3-(trifluoromethyl)phenyl]-5-(hydroxymethyl)-5-methylimidazolidine-2,4-dione]	exposure of metabolite relative to 1, based on AUC0–24h [3]: approximately 3%
high metabolic stabilities	>100/>100 μg/mL	>100/>100 μg/mL	O=C1CNC(=O)N1c1ccc(F)c(C(F)(F)F)c1 [Compd 22]	
			CC1(C)NC(=O)N(c2ccc([N+](=O)[O-])c(C(F)(F)F)c2)C1=O [N, nilutamide]	antischistosomal activity in S. mansoni-infected mice (S. mansoni [4]): weak, but measurable
highly stable	1.6–3.1/1.6–3.1 μg/mL	1.6–3.1/1.6–3.1 μg/mL	CC1(C)C(=O)N(c2ccc(F)c(C(F)(F)F)c2)C(=O)N1S(C)(=O)=O [Compd 7, 3-[4-Fluoro-3-(trifluoromethyl)phenyl]-5,5-dimethyl-1-(methylsulfonyl)imidazolidine-2,4-dione]	
	12.5–25/12.5–25 μg/mL	12.5–25/12.5–25 μg/mL	CC1(C)CC(=O)N(c2ccc(F)c(C(F)(F)F)c2)C1=O [Compd 29, 1-[4-Fluoro-3-(trifluoromethyl)phenyl]-3,3-dimethylpyrrolidine-2,5-dione]	
unstable	12.5 to 25 µg/mL	25 to 50 µg/mL	CC1(C)C(=O)N(c2ccc(F)c(C(F)(F)F)c2)C(=O)N1CCc1ccccc1 [Compd 6, 3-[4-Fluoro-3-(trifluoromethyl)phenyl]-5,5-dimethyl-1-phenethylimidazolidine-2,4-dione]	
			O=C(C1CCCCC1)N1CC(=O)N2CCc3ccccc3C2C1 (stereo not drawn) [PZ, Praziquantel]	Sol2.0 (pH 2): >100/>100 μg/mL; Sol6.5 (pH 6.5): >100/>100 μg/mL; S. mansoni WBR (S. mansoni [5]): 18 ^i %; ED50 against adult S. mansoni (S. mansoni [4]; mouse model): 172 to 202 mg/kg; activity against juvenile stages of the parasite (S. mansoni [4]; mouse model): no significant activity
decreased the metabolic stabilities	25–50/25–50 μg/mL	25–50/25–50 μg/mL	O=C1C2CCCN2C(=O)N1c1ccc(F)c(C(F)(F)F)c1 (stereo not drawn) [Compd 28, 2-[4-Fluoro-3-(trifluoromethyl)phenyl]tetrahydro-1H-pyrrolo[1,2-c]imidazole-1,3(2H)-dione]	
	25–50/25–50 μg/mL	25–50/25–50 μg/mL	CC1(C)C(=O)NC(=O)N1c1ccc(F)c(C(F)(F)F)c1 [Compd 33, 1-[4-Fluoro-3-(trifluoromethyl)phenyl]-5,5-dimethylimidazolidine-2,4-dione]	
	12.5–25/12.5–25 μg/mL	12.5–25/12.5–25 μg/mL	CC1(C)CN(c2ccc(F)c(C(F)(F)F)c2)C(=O)N1 [Compd 32, 1-[4-Fluoro-3-(trifluoromethyl)phenyl]-4,4-dimethylimidazolidin-2-one]	
	12.5–25/12.5–25 μg/mL	12.5–25/12.5–25 μg/mL	CC1(C)CNC(=O)N(c2ccc(F)c(C(F)(F)F)c2)C1=O [Compd 35, 3-[4-Fluoro-3-(trifluoromethyl)phenyl]-5,5-dimethyldihydropyrimidine-2,4(1H,3H)-dione]	
			CC1(C)NC(=O)N(c2ccnc(C(F)(F)F)c2)C1=O [Compd 16, 5,5-Dimethyl-3-[2-(trifluoromethyl)pyridin-4-yl]imidazolidine-2,4-dione]	cure of infected mice (S. mansoni [6]; 100 mg/kg): cure of all of the infected mice
unstable	<1.6/<1.6 μg/mL	<1.6/<1.6 μg/mL	CC1(C)C(=O)N(c2ccc(F)c(C(F)(F)F)c2)C(=O)N1S(=O)(=O)c1ccccc1 [Compd 8, 3-[4-Fluoro-3-(trifluoromethyl)phenyl]-5,5-dimethyl-1-(phenylsulfonyl)imidazolidine-2,4-dione]	
	25–50/25–50 μg/mL	25–50/25–50 μg/mL	CC1(C)CC(=O)N(c2ccc(F)c(C(F)(F)F)c2)C(=O)N1 [Compd 34, 3-[4-Fluoro-3-(trifluoromethyl)phenyl]-6,6-dimethyldihydropyrimidine-2,4(1H,3H)-dione]	
decreased the metabolic stabilities	50–100/50–100 μg/mL	50–100/50–100 μg/mL	O=C1NC2(CCCC2)C(=O)N1c1ccc(F)c(C(F)(F)F)c1 [Compd 26, 3-[4-Fluoro-3-(trifluoromethyl)phenyl]-1,3-diazaspiro[4.4]nonane-2,4-dione]	
	25 to 50 µg/mL		CC1(C)NC(=O)C(c2ccc(F)c(C(F)(F)F)c2)C1=O (stereo not drawn) [Compd 31, 3-[4-Fluoro-3-(trifluoromethyl)phenyl]-5,5-dimethylpyrrolidine-2,4-dione]	
intermediate	50 to 100 µg/mL	25 to 50 µg/mL	CCN1C(=O)N(c2ccc(F)c(C(F)(F)F)c2)C(=O)C1(C)C [Compd 3, 1-Ethyl-3-[4-fluoro-3-(trifluoromethyl)phenyl]-5,5-dimethylimidazolidine-2,4-dione]	metabolic reactions observed [1]: N-dealkylation metabolic reactions to form 1
	25 to 50 µg/mL		CC(C)(NC(=O)Nc1ccc(F)c(C(F)(F)F)c1)C(=O)O [Compd 36, 2-[3-[4-Fluoro-3-(trifluoromethyl)phenyl]ureido]-2-methylpropanoic acid]	exposure of metabolite relative to 1, based on AUC0–24h [3]: < 1%

Structure (SMILES)	metabolic stability (in words) [1]	Sol2.0 [9]	Sol6.5 [10]	further results
CC1(C)C(=O)N(c2ccc(F)c(C(F)(F)F)c2)C(=O)N1CC(N)=O [Compd 4, 2-[3-[4-Fluoro-3-(trifluoromethyl)phenyl]-5,5-dimethyl-2,4-dioxoimidazolidin-1-yl]acetamide]		50–100/50–100 μg/mL	50–100/50–100 μg/mL	LAPC4 IC50 ([2]; DHT-induced luciferase reporter, 24 h): agonist; AR functional activity (in words) ([2]; LAPC4 reporter): weak AR agonist
O=C1N[C@H](c2ccccc2)C(=O)N1c1ccc(F)c(C(F)(F)F)c1 [Compd 24, (R)-3-[4-Fluoro-3-(trifluoromethyl)phenyl]-5-phenylimidazolidine-2,4-dione]	decreased the metabolic stabilities	6.3–12.5/6.3–12.5 μg/mL	6.3–12.5/6.3–12.5 μg/mL	chromatographic logD (physchem): 3.5; IC50 [2]: 5.3 µM; inhibition in vivo at 100 mg/kg (S. mansoni [6]; Schistosoma mansoni, in Mus musculus, po, 504 h, read-out: S. mansoni WBR): 41%; microsomal CLint (in vitro [7]): 22 µL/min/mg; microsomal CLint (in vitro [8]): 181 µL/min/mg
